Experimental data as given in US10745382B2 (BRISTOL-MYERS SQUIBB COMPANY, priority 2015, dated 2020).

Target: T1, PD-1/PD-L1 (Homo sapiens, UniProt Q9NZQ7)
T1 construct: made in house; host or cells: HEK293T
Assay: PD-1/PD-L1 Homogenous Time-Resolved Fluorescence (HTRF) binding assay
Conditions: PD-L1-His 10 nM, PD-1-Ig 20 nM; value given as range class; read-out: Range or IC50
Summary of the method: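 Compounds are tested for blocking the PD-1/PD-L1 interaction in dPBS supplemented with 0.1% BSA and 0.05% (v/v) Tween-20. Tagged proteins are detected with Eu-cryptate anti-Ig and APC anti-His at 1 and 20 nM final.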

T1 sequence (Q9NZQ7 with tags, fused parts or gaps): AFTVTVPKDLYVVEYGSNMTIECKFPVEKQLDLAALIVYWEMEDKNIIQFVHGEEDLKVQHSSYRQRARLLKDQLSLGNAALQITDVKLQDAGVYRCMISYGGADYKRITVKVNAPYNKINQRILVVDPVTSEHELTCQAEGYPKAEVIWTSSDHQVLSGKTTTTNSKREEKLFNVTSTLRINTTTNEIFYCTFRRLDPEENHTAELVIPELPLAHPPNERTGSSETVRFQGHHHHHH

SMILES	IC50 [nM]
Cc1c(COc2cc(OCc3cncc(C#N)c3)c(CN3CCCC[C@H]3C(=O)O)cc2Cl)cccc1-c1cccc(OCCCN2CC[C@@H](F)C2)c1C [Example 3057, (S)-1-(5-chloro-2-((5-cyanopyridin-3-yl)methoxy)-4-((3′-(3-((R)-3-fluoropyrrolidin-1-yl)propoxy)-2,2′-dimethyl-[1,1′-biphenyl]-3-yl)methoxy)benzyl)piperidine-2-carboxylic Acid]	0.21 to 10
Cc1c(COc2cc(OCc3cncc(C#N)c3)c(CN3CCCC[C@H]3C(=O)O)cc2Cl)cccc1-c1cccc(OCCCN2CCOC(C(F)(F)F)C2)c1C (stereo partly drawn) [Example 3058, (2S)-1-(5-chloro-2-((5-cyanopyridin-3-yl)methoxy)-4-((2,2′-dimethyl-3′-(3-(2-(trifluoromethyl)morpholino)propoxy)-[1,1′-biphenyl]-3-yl)methoxy)benzyl)piperidine-2-carboxylic Acid]	0.21 to 10
Cc1c(COc2cc(OCc3cncc(C#N)c3)c(CN3CCCC[C@H]3C(=O)O)cc2Cl)cccc1-c1cccc(C(=O)N2CCN(C)CC2)c1C [Example 3059, (S)-1-(5-chloro-2-((5-cyanopyridin-3-yl)methoxy)-4-((2,2′-dimethyl-3′-(4-methylpiperazine-1-carbonyl)-[1,1′-biphenyl]-3-yl)methoxy)benzyl)piperidine-2-carboxylic Acid]	100 to 2000
Cc1c(COc2cc(OCc3cncc(C#N)c3)c(CN3CCCC[C@H]3C(=O)O)cc2Cl)cccc1-c1cccc(C(=O)NCCN2CC[C@@H](O)C2)c1C [Example 3060, (S)-1-(5-chloro-2-((5-cyanopyridin-3-yl)methoxy)-4-((3′-((2-((R)-3-hydroxypyrrolidin-1-yl)ethyl)carbamoyl)-2,2′-dimethyl-[1,1′-biphenyl]-3-yl)methoxy)benzyl)piperidine-2-carboxylic Acid]	10 to 100
Cc1c(COc2cc(OCc3cncc(C#N)c3)c(CNCCCN(C)C)cc2Cl)cccc1-c1cccc(CNCCCN(C)C)c1 [Example 3062, 5-((4-chloro-2-(((3-(dimethylamino)propyl)amino)methyl)-5-((3′-(((3-(dimethylamino)propyl)amino)methyl)-2-methyl-[1,1′-biphenyl]-3-yl)methoxy)phenoxy)methyl)nicotinonitrile]	100 to 2000
Cc1c(COc2cc(OCc3cncc(C#N)c3)c(CO)cc2Cl)cccc1-c1cc(OCCCN2CC[C@@H](O)C2)cc(OCCCN2CC[C@@H](O)C2)c1 [Example 3063, 5-((5-((3′,5′-bis(3-((R)-3-hydroxypyrrolidin-1-yl)propoxy)-2-methyl-[1,1′-biphenyl]-3-yl)methoxy)-4-chloro-2-(hydroxymethyl)phenoxy)methyl)nicotinonitrile]	2010 to 10000
Cc1c(COc2cc(OCc3cncc(C#N)c3)c(CN[C@@](C)(CO)C(=O)O)cc2Cl)cccc1-c1cc(OCCCN2CC[C@@H](O)C2)cc(OCCCN2CC[C@@H](O)C2)c1 [Example 3064, (S)-2-((4-((3′,5′-bis(3-((R)-3-hydroxypyrrolidin-1-yl)propoxy)-2-methyl-[1,1′-biphenyl]-3-yl)methoxy)-5-chloro-2-((5-cyanopyridin-3-yl)methoxy)benzyl)amino)-3-hydroxy-2-methylpropanoic Acid]	2010 to 10000
Cc1c(COc2cc(OCc3cncc(C#N)c3)c(CN[C@@H](CO)C(=O)O)cc2Cl)cccc1-c1cc(OCCCN2CC[C@@H](O)C2)cc(OCCCN2CC[C@@H](O)C2)c1 [Example 3065, (S)-2-((4-((3′,5′-bis(3-((R)-3-hydroxypyrrolidin-1-yl)propoxy)-2-methyl-[1,1′-biphenyl]-3-yl)methoxy)-5-chloro-2-((5-cyanopyridin-3-yl)methoxy)benzyl)amino)-3-hydroxypropanoic Acid]	10 to 100
CCOC(=O)[C@H](CO)NCc1cc(Cl)c(OCc2cccc(-c3cccc(OCCCN4CC[C@@H](O)C4)c3C)c2C)cc1OCc1cncc(C#N)c1 [Example 3066, (S)-ethyl 2-((5-chloro-2-((5-cyanopyridin-3-yl)methoxy)-4-((3′-(3-((R)-3-hydroxypyrrolidin-1-yl)propoxy)-2,2′-dimethyl-[1,1′-biphenyl]-3-yl)methoxy)benzyl)amino)-3-hydroxypropanoate]	0.21 to 10
COC(=O)[C@@H]1CCCCN1Cc1cc(Cl)c(OCc2cccc(-c3cccc(OCCCN4CC[C@@H](O)C4)c3C)c2C)cc1OCc1cncc(C#N)c1 [Example 3067, methyl (S)-1-(5-chloro-2-((5-cyanopyridin-3-yl)methoxy)-4-((3′-(3-((R)-3-hydroxypyrrolidin-1-yl)propoxy)-2,2′-dimethyl-[1,1′-biphenyl]-3-yl)methoxy)benzyl)piperidine-2-carboxylate]	0.21 to 10
Cc1c(COc2cc(OCc3cncc(C#N)c3)c(CN3CCCCC3(C)C(=O)O)cc2Cl)cccc1-c1cccc(OCCCN2CC[C@@H](O)C2)c1C (stereo partly drawn) [Example 3068, 1-(5-chloro-2-((5-cyanopyridin-3-yl)methoxy)-4-((3′-(3-((R)-3-hydroxypyrrolidin-1-yl)propoxy)-2,2′-dimethyl-[1,1′-biphenyl]-3-yl)methoxy)benzyl)-2-methylpiperidine-2-carboxylic Acid]	0.21 to 10
COC(=O)C1(C)CCCCN1Cc1cc(Cl)c(OCc2cccc(-c3cccc(OCCCN4CC[C@@H](O)C4)c3C)c2C)cc1OCc1cncc(C#N)c1 (stereo partly drawn) [Example 3069, methyl 1-(5-chloro-2-((5-cyanopyridin-3-yl)methoxy)-4-((3′-(3-((R)-3-hydroxypyrrolidin-1-yl)propoxy)-2,2′-dimethyl-[1,1′-biphenyl]-3-yl)methoxy)benzyl)-2-methylpiperidine-2-carboxylate]	0.21 to 10
COC(=O)C1(C)CCCCN1Cc1cc(Cl)c(OCc2cccc(-c3cccc(OCCCN4CC[C@@H](O)C4)c3Cl)c2C)cc1OCc1cncc(C#N)c1 (stereo partly drawn) [Example 3070, methyl 1-(5-chloro-4-((2′-chloro-3′-(3-((R)-3-hydroxypyrrolidin-1-yl)propoxy)-2-methyl-[1,1′-biphenyl]-3-yl)methoxy)-2-((5-cyanopyridin-3-yl)methoxy)benzyl)-2-methylpiperidine-2-carboxylate]	0.21 to 10
Cc1c(COc2ccc(CN3CCCC[C@H]3C(=O)O)cc2Cl)cccc1-c1cccc(OCCCN2CC[C@@H](O)C2)c1C [Example 3072, (S)-1-(3-chloro-4-((3′-(3-((R)-3-hydroxypyrrolidin-1-yl)propoxy)-2,2′-dimethyl-[1,1′-biphenyl]-3-yl)methoxy)benzyl)piperidine-2-carboxylic Acid]	0.21 to 10
Cc1c(COc2cc(OCc3cncc(C#N)c3)c(CN3CCCC[C@H]3C(=O)O)cc2Cl)cccc1-c1cccc(C(=O)N2CC2)c1C [Example 4001, (S)-1-(4-((3′-(aziridine-1-carbonyl)-2,2′-dimethyl-[1,1′-biphenyl]-3-yl)methoxy)-5-chloro-2-((5-cyanopyridin-3-yl)methoxy)benzyl)piperidine-2-carboxylic Acid]	0.21 to 10
Cc1c(COc2cc(OCc3cncc(C#N)c3)c(CN3CCCC[C@H]3C(=O)O)cc2Cl)cccc1-c1cccc(C(=O)NCCN2CCCC2)c1C [Example 4002, (S)-1-(5-chloro-2-((5-cyanopyridin-3-yl)methoxy)-4-((2,2′-dimethyl-3′-((2-(pyrrolidin-1-yl)ethyl)carbamoyl)-[1,1′-biphenyl]-3-yl)methoxy)benzyl)piperidine-2-carboxylic Acid]	10 to 100
Cc1c(COc2cc(OCc3cncc(C#N)c3)c(CNC(CO)CO)cc2Cl)cccc1-c1cccc(C(=O)NCCN2CCCC2)c1C [Example 4003, 3′-((2-chloro-5-((5-cyanopyridin-3-yl)methoxy)-4-(((1,3-dihydroxypropan-2-yl)amino)methyl)phenoxy)methyl)-2,2′-dimethyl-N-(2-(pyrrolidin-1-yl)ethyl)-[1,1′-biphenyl]-3-carboxamide]	0.21 to 10
Cc1c(COc2cc(OCc3cncc(C#N)c3)c(CN3CCCC[C@H]3C(=O)O)cc2Cl)cccc1-c1cccc(C(=O)NCCN2CCS(=O)(=O)CC2)c1C [Example 4004, (S)-1-(5-chloro-2-((5-cyanopyridin-3-yl)methoxy)-4-((3′-((2-(1,1-dioxidothiomorpholino)ethyl)carbamoyl)-2,2′-dimethyl-[1,1′-biphenyl]-3-yl)methoxy)benzyl)piperidine-2-carboxylic Acid]	10 to 100
Cc1c(COc2cc(OCc3cncc(C#N)c3)c(CNC(CO)CO)cc2Cl)cccc1-c1cccc(C(=O)NCCN2CCS(=O)(=O)CC2)c1C [Example 4005, 3′-((2-chloro-5-((5-cyanopyridin-3-yl)methoxy)-4-(((1,3-dihydroxypropan-2-yl)amino)methyl)phenoxy)methyl)-N-(2-(1,1-dioxidothiomorpholino)ethyl)-2,2′-dimethyl-[1,1′-biphenyl]-3-carboxamide]	0.21 to 10
CCNC(=O)c1cccc(-c2cccc(COc3cc(OCc4cncc(C#N)c4)c(CN4CCCC[C@H]4C(=O)O)cc3Cl)c2C)c1C [Example 4006, (S)-1-(5-chloro-2-((5-cyanopyridin-3-yl)methoxy)-4-((3′-(ethylcarbamoyl)-2,2′-dimethyl-[1,1′-biphenyl]-3-yl)methoxy)benzyl)piperidine-2-carboxylic Acid]	10 to 100
CCNC(=O)c1cccc(-c2cccc(COc3cc(OCc4cncc(C#N)c4)c(CN4CCC[C@H]4C(=O)O)cc3Cl)c2C)c1C [Example 4007, (5-chloro-2-((5-cyanopyridin-3-yl)methoxy)-4-((3′-(ethylcarbamoyl)-2,2′-dimethyl-[1,1′-biphenyl]-3-yl)methoxy)benzyl)-L-proline]	100 to 2000
CCNC(=O)c1cccc(-c2cccc(COc3cc(OCc4cncc(C#N)c4)c(CN4C[C@H](O)C[C@H]4C(=O)O)cc3Cl)c2C)c1C [Example 4008, (2S,4R)-1-(5-chloro-2-((5-cyanopyridin-3-yl)methoxy)-4-((3′-(ethylcarbamoyl)-2,2′-dimethyl-[1,1′-biphenyl]-3-yl)methoxy)benzyl)-4-hydroxypyrrolidine-2-carboxylic Acid]	10 to 100
